Results from patent US6362369B1, “Phthalic acid diamide derivatives fluorine-containing aniline compounds as starting material, agricultural and horticultural insecticides, and a method for application of the insecticides” (Nihon Nohyaku Co., Ltd., priority 1997, dated 2002).

How the values were obtained:
Type in all cases: in vivo
[1] = system: diamondback moth (Plutella xylostella); assay: Insecticidal effect on diamondback moth (Test Example 1); details: mortality judged according to the criterion shown in Test Example 1
How it was run: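 Triplicate groups of 10 insects were scored: six days after immersion of oviposited Chinese cabbage seedlings and holding at 25 °C post air-drying, hatched larvae were counted. Mortality derived from these counts and insecticidal effect judged by a set criterion.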

[2] = system: rice leafroller (Cnaphalocrocis medinalis); assay: Insecticidal effect on rice leafroller (Test Example 3); details: 500 ppm, rice lamina dip, third-instar larvae, four days after inoculation, 25° C., humidity 70%
How it was run: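 Insecticidal effect is judged by a predefined criterion from dead/alive counts four days after infesting air-dried lamina with third-instar larvae, kept on moistened filter paper at 25° C, 70% humidity.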

[3] = system: common cutworm (Spodoptera Litura); assay: Insecticidal effect on common cutworm (Test Example 2); details: 500 ppm, cabbage leaf dip, second-instar larvae, eight days after inoculation, 25° C.
How it was run: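 Mortality is the read-out: larvae are counted as dead or alive on day 8 and the percentage is graded by an effect criterion. Second-instar larvae are kept with the air-dried treated material in a sealed dish at 25° C, in triplicate groups of ten.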

| Structure (SMILES) | Insecticidal effect on diamondback moth (Test Example 1), judged grade [1] | Insecticidal effect on rice leafroller (Test Example 3), judged grade [2] | Insecticidal effect on common cutworm (Test Example 2), judged grade [3] |
| --- | --- | --- | --- |
| Cc1cc(OCC(F)(F)C(F)F)ccc1NC(=O)c1cccc([N+](=O)[O-])c1C(=O)NC(C)C [compound 699] | A (100) | D (79-50) | A (100) |
| Cc1cc(OC(F)(F)C(F)(Br)C(F)(F)F)ccc1NC(=O)c1cccc([N+](=O)[O-])c1C(=O)NC(C)C (stereo not drawn) [compound 700] | A (100) | A (100) | A (100) |
| Cc1cc(OCC(F)OC(F)(F)F)ccc1NC(=O)c1cccc([N+](=O)[O-])c1C(=O)NC(C)C (stereo not drawn) [compound 701] | A (100) | A (100) | A (100) |
| CC(C)NC(=O)c1c(C(=O)Nc2ccc(C(F)(C(F)(F)F)C(F)(F)F)cc2Cl)cccc1[N+](=O)[O-] [compound 703] | A (100) | A (100) | A (100) |
| CC(C)NC(=O)c1c(C(=O)Nc2ccc(OC(F)(F)F)cc2Br)cccc1[N+](=O)[O-] [compound 705] | A (100) | A (100) | D (79-50) |
| Cc1cc(OC(F)(F)F)ccc1NC(=O)c1cccc([N+](=O)[O-])c1C(=O)NC(C)C [compound 710] | A (100) | A (100) | C (89-80) |
| Cc1cc(OC(F)(F)Br)ccc1NC(=O)c1cccc([N+](=O)[O-])c1C(=O)NC(C)C [compound 711] | A (100) | A (100) | C (89-80) |
| Cc1cc(OC(F)(F)C(F)F)ccc1NC(=O)c1cccc([N+](=O)[O-])c1C(=O)NC(C)C [compound 712] | A (100) | A (100) | A (100) |
| Cc1c(NC(=O)c2cccc([N+](=O)[O-])c2C(=O)NC(C)C)cccc1OC(F)(F)C(F)Cl (stereo not drawn) [compound 713] | A (100) | D (79-50) | B (99-90) |
| Cc1cc(OC(F)(F)C(F)Cl)ccc1NC(=O)c1cccc([N+](=O)[O-])c1C(=O)NC(C)C (stereo not drawn) [compound 714] | A (100) | A (100) | A (100) |
| Cc1cc(OC(F)(F)C(F)(Cl)Cl)ccc1NC(=O)c1cccc([N+](=O)[O-])c1C(=O)NC(C)C [compound 715] | A (100) | A (100) | A (100) |
| Cc1cc(OC(F)(F)C(F)C(F)(F)F)ccc1NC(=O)c1cccc([N+](=O)[O-])c1C(=O)NC(C)C (stereo not drawn) [compound 716] | A (100) | A (100) | A (100) |
| Cc1cc(Sc2ccc(Cl)cc2)ccc1NC(=O)c1cccc([N+](=O)[O-])c1C(=O)NC(C)C [compound 727] | A (100) | A (100) | B (99-90) |
| CC(C)NC(=O)c1cccc([N+](=O)[O-])c1C(=O)Nc1ccc(C(F)(F)C(F)(F)C(F)(F)F)cc1Cl [compound 741] | A (100) | A (100) | A (100) |
| CCc1cccc(C(=O)NC(C)C)c1C(=O)Nc1ccc(Cl)cc1C [compound 753] | A (100) | D (79-50) | A (100) |
| COc1cccc(C(=O)Nc2ccc(OC(F)(F)F)cc2)c1C(=O)NC(C)C [compound 767] | A (100) | A (100) | C (89-80) |
| COc1cccc(C(=O)Nc2ccc(Br)cc2C)c1C(=O)NC(C)C [compound 768] | A (100) | A (100) | B (99-90) |

| Structure (SMILES) | Insecticidal effect on diamondback moth (Test Example 1), judged grade [1] | Insecticidal effect on rice leafroller (Test Example 3), judged grade [2] | Insecticidal effect on common cutworm (Test Example 2), judged grade [3] |
| --- | --- | --- | --- |
| COc1cccc(C(=O)NC(C)C)c1C(=O)Nc1cc(Cl)ccc1C [compound 770] | A (100) | A (100) | A (100) |
| CSc1cccc(C(=O)Nc2cccc(Cl)c2C)c1C(=O)NC(C)C [compound 780] | A (100) | A (100) | A (100) |
| CSc1cccc(C(=O)Nc2ccc(Cl)cc2C)c1C(=O)NC(C)C [compound 781] | A (100) | A (100) | A (100) |
| CSc1cccc(C(=O)Nc2ccc(OC(F)F)cc2C)c1C(=O)NC(C)C [compound 783] | A (100) | A (100) | A (100) |
| Cc1cc(OC(F)F)ccc1NC(=O)c1cccc(S(C)(=O)=O)c1C(=O)NC(C)C [compound 795] | A (100) | A (100) | B (99-90) |
| C#Cc1cccc(C(=O)NC(C)C)c1C(=O)Nc1ccc(Cl)cc1C [compound 801] | A (100) | D (79-50) | A (100) |
| Cc1cc(OC(F)F)ccc1NC(=O)c1ccc2ccccc2c1C(=O)NC(C)C [compound 819] | A (100) | A (100) | B (99-90) |
| CCC(C)NC(=O)c1c(C(=O)Nc2cc(Cl)ccc2C)cccc1[N+](=O)[O-] (stereo not drawn) [compound 838] | A (100) | A (100) | C (89-80) |
| Cc1ccc(Cl)cc1NC(=O)c1cccc([N+](=O)[O-])c1C(=O)NC(C)(C)C [compound 842] | A (100) | D (79-50) | A (100) |
| Cc1cc(OC(F)F)ccc1NC(=O)c1cccc(Cl)c1C(=O)NC1CC1 [compound 849] | A (100) | A (100) | B (99-90) |
| Cc1ccc(Cl)cc1NC(=O)c1cccc([N+](=O)[O-])c1C(=O)NC1CC1 [compound 851] | A (100) | A (100) | D (79-50) |
| Cc1ccc(F)cc1NC(=O)c1cccc([N+](=O)[O-])c1C(=O)NCCF [compound 862] | A (100) | D (79-50) | D (79-50) |
| COCC(C)NC(=O)c1c(C(=O)Nc2ccc(OC(F)F)cc2C)cccc1[N+](=O)[O-] (stereo not drawn) [compound 874] | A (100) | A (100) | C (89-80) |
| CC(C)NC(=O)c1c(C(=O)Nc2ccc(C(F)(F)C(F)(F)F)cc2)cccc1[N+](=O)[O-] [compound 890] | A (100) | A (100) | A (100) |
| CC(C)NC(=O)c1c(F)cccc1C(=O)Nc1ccc(C(F)(F)C(F)(F)F)cc1 [compound 891] | A (100) | A (100) | A (100) |
| CC(C)NC(=O)c1c(Cl)cccc1C(=O)Nc1ccc(C(F)(F)C(F)(F)F)cc1 [compound 893] | A (100) | A (100) | A (100) |
| CC(C)NC(=O)c1cccc(Cl)c1C(=O)Nc1ccc(C(F)(F)C(F)(F)F)cc1 [compound 894] | A (100) | A (100) | A (100) |
